Test results reported in ChEMBL document CHEMBL1201862, “PubChem BioAssay data set” (2004).
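Following 48 hours of exposure in 96-well plates, responses at five concentrations were used to interpolate endpoints linearly. GI50: concentration for 50% inhibition of growth.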 Calls of active or inactive are those of the source. No stated cut-off is given here; in the data, active = GI50 up to about 1.1 µM and inactive = higher.

Key:
Experiment in all cases: inhibition of tumour cell growth, NCI panel, 48 h
786-0 = tested on: 786-0
ACHN = tested on: ACHN
HT-29 = tested on: HT-29
IGROV-1 = tested on: IGROV-1
LOX IMVI = tested on: LOX IMVI
MCF7 = tested on: MCF7
Malme-3M = tested on: Malme-3M
NCI-H23 = tested on: NCI-H23
NCI-H522 = tested on: NCI-H522
OVCAR-3 = tested on: OVCAR-3
RXF 393 = tested on: RXF 393
SK-MEL-5 = tested on: SK-MEL-5
SNB-19 = tested on: SNB-19
SNB-75 = tested on: SNB-75
SW-620 = tested on: SW-620
T47D = tested on: T47D
U-251 = tested on: U-251
UO-31 = tested on: UO-31
HCC 2998 = tested on: HCC 2998
HOP-92 = tested on: HOP-92

| SMILES | GI50 (786-0) | GI50 (ACHN) | GI50 (HT-29) | GI50 (IGROV-1) | GI50 (LOX IMVI) | GI50 (MCF7) | GI50 (Malme-3M) | GI50 (NCI-H23) | GI50 (NCI-H522) | GI50 (OVCAR-3) | GI50 (RXF 393) | GI50 (SK-MEL-5) | GI50 (SNB-19) | GI50 (SNB-75) | GI50 (SW-620) | GI50 (T47D) | GI50 (U-251) | GI50 (UO-31) | GI50 (HCC 2998) | GI50 (HOP-92) |
| --- | --- | --- | --- | --- | --- | --- | --- | --- | --- | --- | --- | --- | --- | --- | --- | --- | --- | --- | --- | --- |
| COC(=O)C(NC(=O)C(CC(=O)OC(C)(C)C)NC(=O)OC(C)(C)C)C(O)c1ccccc1 (stereo not drawn) | > 100 µM (inactive) | > 100 µM (inactive) | > 100 µM (inactive) | > 100 µM (inactive) | > 100 µM (inactive) | > 100 µM (inactive) | > 100 µM (inactive) | > 100 µM (inactive) | > 100 µM (inactive) | > 100 µM (inactive) | 97.5 µM (inactive) | > 100 µM (inactive) | > 100 µM (inactive) | > 100 µM (inactive) | > 100 µM (inactive) | > 100 µM (inactive) | > 100 µM (inactive) | > 100 µM (inactive) | – | – |
| O=C1NC(=O)/C(=C\c2ccncc2)N1 | > 100 µM (inactive) | > 100 µM (inactive) | > 100 µM (inactive) | > 100 µM (inactive) | > 100 µM (inactive) | > 100 µM (inactive) | – | > 100 µM (inactive) | – | > 100 µM (inactive) | – | > 100 µM (inactive) | > 100 µM (inactive) | > 100 µM (inactive) | > 100 µM (inactive) | > 100 µM (inactive) | > 100 µM (inactive) | > 100 µM (inactive) | > 100 µM (inactive) | > 100 µM (inactive) |
| CC(C)(C)OC(=O)n1cc(C2CNC(=O)C23CCC(=O)N3Cc2ccccc2)c2ccccc21 (stereo not drawn) | 24.7 µM (inactive) | – | 19.1 µM (inactive) | 17.3 µM (inactive) | 19.8 µM (inactive) | 27.9 µM (inactive) | 21.9 µM (inactive) | 23.2 µM (inactive) | 17.8 µM (inactive) | 19.2 µM (inactive) | 21.9 µM (inactive) | 16.9 µM (inactive) | 33.3 µM (inactive) | 18.1 µM (inactive) | 33.5 µM (inactive) | 26 µM (inactive) | 18.7 µM (inactive) | 22.1 µM (inactive) | – | 10.9 µM (inactive) |
| CCCCC(/C=C\COC1CCCCO1)=C/C(=O)OCC (stereo not drawn) | 65.2 µM (inactive) | > 100 µM (inactive) | 38.4 µM (inactive) | 61.2 µM (inactive) | 41.4 µM (inactive) | 46.9 µM (inactive) | > 100 µM (inactive) | > 100 µM (inactive) | 30.5 µM (inactive) | 52.7 µM (inactive) | 60.7 µM (inactive) | 92.5 µM (inactive) | 98.2 µM (inactive) | 48.8 µM (inactive) | 70.6 µM (inactive) | 55.3 µM (inactive) | 44.8 µM (inactive) | > 100 µM (inactive) | > 100 µM (inactive) | – |
| COC(=O)NNC(=O)OC.COC(=O)Nc1ccccc1NC(=O)OC.COC(=O)Oc1nn(C(=O)OC)c(=O)c2ccccc12 | > 100 µM (inactive) | > 100 µM (inactive) | > 100 µM (inactive) | > 100 µM (inactive) | > 100 µM (inactive) | > 100 µM (inactive) | > 100 µM (inactive) | > 100 µM (inactive) | > 100 µM (inactive) | > 100 µM (inactive) | > 100 µM (inactive) | > 100 µM (inactive) | > 100 µM (inactive) | > 100 µM (inactive) | > 100 µM (inactive) | > 100 µM (inactive) | > 100 µM (inactive) | > 100 µM (inactive) | > 100 µM (inactive) | – |
| NC(=O)C1=NNc2ccccc2C(=O)N1c1ccccc1 | > 100 µM (inactive) | > 100 µM (inactive) | > 100 µM (inactive) | > 100 µM (inactive) | > 100 µM (inactive) | > 100 µM (inactive) | > 100 µM (inactive) | – | > 100 µM (inactive) | > 100 µM (inactive) | > 100 µM (inactive) | > 100 µM (inactive) | > 100 µM (inactive) | 14.5 µM (inactive) | > 100 µM (inactive) | > 100 µM (inactive) | > 100 µM (inactive) | > 100 µM (inactive) | – | > 10 µM (inactive) |
| O/N=C1/Nc2cc(Cl)ccc2C(=S)N2CSCC12 (stereo not drawn) | > 100 µM (inactive) | > 100 µM (inactive) | > 100 µM (inactive) | > 100 µM (inactive) | > 100 µM (inactive) | > 100 µM (inactive) | > 100 µM (inactive) | – | > 100 µM (inactive) | > 100 µM (inactive) | > 100 µM (inactive) | > 100 µM (inactive) | > 100 µM (inactive) | > 100 µM (inactive) | > 100 µM (inactive) | > 100 µM (inactive) | > 100 µM (inactive) | > 100 µM (inactive) | > 100 µM (inactive) | – |
| CNc1ccc([S+]([O-])Nc2ccc(OC)cc2)cc1 (stereo not drawn) | 74.8 µM (inactive) | 32.3 µM (inactive) | 33.7 µM (inactive) | 11.4 µM (inactive) | 7.38 µM (inactive) | 79.6 µM (inactive) | 41.7 µM (inactive) | > 100 µM (inactive) | > 100 µM (inactive) | > 100 µM (inactive) | – | 19.3 µM (inactive) | > 100 µM (inactive) | – | 31.6 µM (inactive) | 31.8 µM (inactive) | 43.4 µM (inactive) | 7 µM (inactive) | 50.2 µM (inactive) | > 100 µM (inactive) |
| CN1CC=C(OP(=O)(NCc2ccccc2)N(CCCl)CCCl)CC1 (stereo not drawn) | > 100 µM (inactive) | > 100 µM (inactive) | 61.8 µM (inactive) | > 100 µM (inactive) | > 100 µM (inactive) | > 100 µM (inactive) | > 100 µM (inactive) | > 100 µM (inactive) | – | > 100 µM (inactive) | 40.9 µM (inactive) | – | > 100 µM (inactive) | 89.3 µM (inactive) | > 100 µM (inactive) | > 100 µM (inactive) | > 100 µM (inactive) | > 100 µM (inactive) | > 100 µM (inactive) | > 100 µM (inactive) |
| C=C[C@]1(C)CC[C@]2(C)C(CC[C@@]3(C)C2C[C@H](O)[C@H](O)[C@@]3(C)O)C1 (stereo partly drawn) | > 100 µM (inactive) | > 100 µM (inactive) | > 100 µM (inactive) | > 100 µM (inactive) | > 100 µM (inactive) | > 100 µM (inactive) | > 100 µM (inactive) | > 100 µM (inactive) | > 100 µM (inactive) | > 100 µM (inactive) | – | > 100 µM (inactive) | > 100 µM (inactive) | > 100 µM (inactive) | > 100 µM (inactive) | > 100 µM (inactive) | > 100 µM (inactive) | > 100 µM (inactive) | > 100 µM (inactive) | – |
| CN1C(=O)C2CCCC(=O)N2c2cccnc21 (stereo not drawn) | > 100 µM (inactive) | > 100 µM (inactive) | > 100 µM (inactive) | > 100 µM (inactive) | > 100 µM (inactive) | > 100 µM (inactive) | > 100 µM (inactive) | > 100 µM (inactive) | > 100 µM (inactive) | > 100 µM (inactive) | – | > 100 µM (inactive) | > 100 µM (inactive) | – | > 100 µM (inactive) | > 100 µM (inactive) | > 100 µM (inactive) | 74.1 µM (inactive) | > 100 µM (inactive) | – |
| Cc1ccc(C(=O)/C=C(\O)C(=O)NC23CC4CC(CC(C4)C2)C3)cc1 | > 10 µM (inactive) | – | > 10 µM (inactive) | – | 0.851 µM (active) | 7.41 µM (inactive) | > 10 µM (inactive) | 5.43 µM (inactive) | – | – | > 10 µM (inactive) | > 10 µM (inactive) | – | > 10 µM (inactive) | > 10 µM (inactive) | > 10 µM (inactive) | – | – | > 10 µM (inactive) | > 10 µM (inactive) |
| CC1(C)C2CCC(CN)(C2)C1N (stereo not drawn) | > 100 µM (inactive) | > 100 µM (inactive) | > 100 µM (inactive) | > 100 µM (inactive) | > 100 µM (inactive) | > 100 µM (inactive) | > 100 µM (inactive) | > 100 µM (inactive) | – | > 100 µM (inactive) | > 100 µM (inactive) | > 100 µM (inactive) | > 100 µM (inactive) | > 54.5 µM (inactive) | > 100 µM (inactive) | > 100 µM (inactive) | > 100 µM (inactive) | > 100 µM (inactive) | 9.42 µM (inactive) | > 100 µM (inactive) |
| CC(C)(C)OC(=O)N/C(C=O)=C\C1CCCCC1 | 19.9 µM (inactive) | 29.3 µM (inactive) | 27.2 µM (inactive) | 20.7 µM (inactive) | 14.3 µM (inactive) | 25.6 µM (inactive) | 25.8 µM (inactive) | 23.7 µM (inactive) | 45.7 µM (inactive) | 24.1 µM (inactive) | 23.4 µM (inactive) | 15.3 µM (inactive) | 25.1 µM (inactive) | 29.7 µM (inactive) | 27.3 µM (inactive) | 24.6 µM (inactive) | 17.2 µM (inactive) | 16.5 µM (inactive) | 19.8 µM (inactive) | – |
| N#CCCC(CC#N)N1CCN(CCO)CC1 (stereo not drawn) | > 100 µM (inactive) | > 100 µM (inactive) | > 100 µM (inactive) | > 100 µM (inactive) | – | > 100 µM (inactive) | > 100 µM (inactive) | > 100 µM (inactive) | – | – | > 100 µM (inactive) | > 100 µM (inactive) | > 100 µM (inactive) | > 100 µM (inactive) | > 100 µM (inactive) | > 100 µM (inactive) | > 100 µM (inactive) | > 100 µM (inactive) | > 100 µM (inactive) | > 100 µM (inactive) |
| COc1cc2c(cc1OC)-c1[nH]c3ccc(C#N)cc3c1CC(=O)N2 | 3.68 µM (inactive) | 2.32 µM (inactive) | 3.88 µM (inactive) | 0.759 µM (active) | 2.09 µM (inactive) | 4.71 µM (inactive) | > 28.5 µM (inactive) | 12.2 µM (inactive) | – | 1.42 µM (inactive) | – | 3.23 µM (inactive) | > 100 µM (inactive) | 0.44 µM (active) | 1.03 µM (active) | > 100 µM (inactive) | 2.61 µM (inactive) | 2.11 µM (inactive) | – | > 100 µM (inactive) |
